Laboratory results reported in publication PMC6148290, “Endogenous metabolites of vitamin E limit inflammation by targeting 5-lipoxygenase” (Nature Communications, 2018).

How the values were obtained:
[1] = tested on: peripheral blood mononuclear cells; assay: Cell viability of PBMC (MTT assay); format: cell-based, human; conditions: at 1 and 10 µM (one entry for both); 24 h; n.i. no inhibition
Procedure: The formazan product was solubilized with SDS (10% in 20 mM HCl), and absorbance was measured at 570 nm using a Multiskan Spectrum microplate reader (Thermo Fisher Scientific).

bovine COX-1 = target: T1, bovine COX-1 (Bos taurus, UniProt O62664); assay: Activity of isolated COX-1; format: biochemical
T1 construct: purchased Cayman Chemicals
T1 sequence (O62664 25-600): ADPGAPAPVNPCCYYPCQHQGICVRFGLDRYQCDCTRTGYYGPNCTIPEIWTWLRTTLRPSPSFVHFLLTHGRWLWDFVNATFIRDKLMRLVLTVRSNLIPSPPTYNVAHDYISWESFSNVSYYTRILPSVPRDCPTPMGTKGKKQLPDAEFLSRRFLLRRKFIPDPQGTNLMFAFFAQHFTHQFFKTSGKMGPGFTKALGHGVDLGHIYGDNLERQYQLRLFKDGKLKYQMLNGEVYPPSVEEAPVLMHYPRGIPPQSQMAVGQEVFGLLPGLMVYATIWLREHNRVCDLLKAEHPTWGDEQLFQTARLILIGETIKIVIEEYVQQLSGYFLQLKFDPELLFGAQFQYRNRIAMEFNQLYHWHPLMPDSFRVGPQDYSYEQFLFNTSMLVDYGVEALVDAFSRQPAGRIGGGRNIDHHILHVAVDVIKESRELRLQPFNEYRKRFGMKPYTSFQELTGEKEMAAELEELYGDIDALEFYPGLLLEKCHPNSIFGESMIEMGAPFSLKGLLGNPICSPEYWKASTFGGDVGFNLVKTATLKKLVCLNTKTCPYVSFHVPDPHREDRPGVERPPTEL
Procedure: Purified bovine COX-1 (Cayman Chemicals; 50 units) or human recombinant COX-2 (Cayman Chemicals; 20 units) in 100 mM Tris buffer pH 8, 5 mM glutathione, 5 µM hemoglobin, and 100 µM EDTA were pre-incubated with LCMs for 5 min at 4 °C followed by 1 min at 37 °C. Formation of COX-derived 12(S)-hydroxy-5-cis-8,10-trans-heptadecatrienoic acid (12-HHT) was initiated by addition of AA (COX-1: 5 μM; COX-2: 2 μM).

COX-1 = target: T2, COX-1 (Homo sapiens, UniProt P23219); assay: COX-1 activity (12-HHT formation) in washed platelets; format: cell-based
T2 construct: Freshly isolated human platelets (1 × 10^8) were pre-incubated with LCMs; endogenous in cells; host or cells: washed human platelets
Procedure: Freshly isolated human platelets (1 × 10^8) were pre-incubated with LCMs for 5 min at room temperature. Formation of COX-1-derived 12-HHT was initiated by addition of exogenous AA (5 µM).

intracellular Ca^2+ = assay: Intracellular Ca2+ in fMLP-stimulated PMNL; format: cell-based, human
Procedure: PMNL (1 × 10^6) were incubated with Fura-2/AM (Thermo Fisher Scientific; 2 nmol) for 45 min at 37 °C, washed, resuspended in PBS pH 7.4 plus 1 mg/ml glucose and transferred to fluorescene 96-well microplates (Greiner). After pre-incubation with compounds for 10 min, 1 mM Ca^2+ was added, and cells were stimulated with fMLP (1 µM) for another 10 min. Intracellular Ca^2+ concentrations were determined using a thermally (37 °C) controlled NOVOstar fluorescence microplate reader [BMG Labtech, Ortenberg, Germany; emission at 510 nm, excitation at 340 nm (Ca^2+-bound Fura-2) and 380 nm (free Fura-2)][17]. The maximal fluorescence signal was recorded after lysis of […] with Triton X-100, and the minimal fluorescence was assessed by adding 20 mM EDTA to chelate Ca^2+. The difference in the signal ratio obtained with Triton X-100 and Triton X-100 plus 20 mM EDTA was set to 100% for each experiment.

[2] = tested on: zymosan-induced murine peritonitis; assay: Zymosan-induced peritonitis in mice; format: in vivo, mouse; conditions: 10 mg/kg i.p.
Procedure: Mice were killed by inhalation of CO2 after another 30 min for determination of LTC4 levels and vascular permeability and after 4 h for the analysis of LTB4 levels, lipidomic profiles and immune cell infiltration. Cell infiltration and lipid mediator profiles during resolution were studied after 18 h. Peritoneal exudates were collected and cells counted after vital trypan blue staining. LTC4, LTB4, and PGE2 were analyzed in the exudate by enzyme immunoassays (Enzo Life Sciences, Lörrach, Germany) according to manufacturer's instructions. To assess vascular permeability, Evans blue dye (40 mg/kg in saline, 0.3 ml; Sigma-Aldrich) was injected into the tail vain immediately before the induction of peritonitis. Exudates were centrifuged (3000 × g, 5 min) and the absorbance of the supernatants was measured at 610 nm using a Beckman Coulter DU730 spectrophotometer. To investigate the effect of α-T (1a) on the accumulation of α-T-13'-COOH (4a) in infiltrated leukocytes after peritonitis has been established, vehicle or α-[…].) were given 1 h before and/or 4 h post zymosan injection, and mice were killed after another 1.5 h. Leukocytes were obtained from peritoneal exudates by centrifugation (1200 × g, 10 min, 4 °C).

[3] = target: T3, human microsomal prostaglandin E2 synthase (mPGES)-1 (Homo sapiens, UniProt O14684); assay: mPGES-1 activity in microsomal preparations of IL-1β-treated A549 cells
T3 sequence (O14684 1-152): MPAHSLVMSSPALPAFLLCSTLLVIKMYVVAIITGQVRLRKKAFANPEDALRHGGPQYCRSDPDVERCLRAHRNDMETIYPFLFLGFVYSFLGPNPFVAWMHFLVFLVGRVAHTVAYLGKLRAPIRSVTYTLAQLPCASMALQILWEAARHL
Procedure: Microsomal membranes of interleukin-1β-treated A549 cells were prepared as source of mPGES-1[67]. […] Ice-cold homogenization buffer (0.1 M potassium phosphate buffer pH 7.4, 1 mM phenylmethanesulphonyl fluoride, 60 µg/ml soybean trypsin inhibitor, 1 µg/ml leupeptin, 2.5 mM glutathione, and 250 mM sucrose) was added, and cells were incubated for 15 min on ice prior to sonication (3 × 20 s, 4 °C). […] Microsomes were suspended in homogenization buffer and diluted in potassium phosphate buffer (0.1 M, pH 7.4) containing 2.5 mM glutathione. Membranes (2.5–5 µg total protein) were pre-incubated with LCMs for 15 min at 4 °C, and PGE2 formation was initiated by addition of PGH2 (20 µM, final concentration). The reaction was terminated after 1 min by addition of one volume stop solution (40 mM FeCl2, 80 mM citric acid and 1 nmol of the internal standard 11β-PGE2, Cayman Chemicals).

T2 sequence (P23219 24-599): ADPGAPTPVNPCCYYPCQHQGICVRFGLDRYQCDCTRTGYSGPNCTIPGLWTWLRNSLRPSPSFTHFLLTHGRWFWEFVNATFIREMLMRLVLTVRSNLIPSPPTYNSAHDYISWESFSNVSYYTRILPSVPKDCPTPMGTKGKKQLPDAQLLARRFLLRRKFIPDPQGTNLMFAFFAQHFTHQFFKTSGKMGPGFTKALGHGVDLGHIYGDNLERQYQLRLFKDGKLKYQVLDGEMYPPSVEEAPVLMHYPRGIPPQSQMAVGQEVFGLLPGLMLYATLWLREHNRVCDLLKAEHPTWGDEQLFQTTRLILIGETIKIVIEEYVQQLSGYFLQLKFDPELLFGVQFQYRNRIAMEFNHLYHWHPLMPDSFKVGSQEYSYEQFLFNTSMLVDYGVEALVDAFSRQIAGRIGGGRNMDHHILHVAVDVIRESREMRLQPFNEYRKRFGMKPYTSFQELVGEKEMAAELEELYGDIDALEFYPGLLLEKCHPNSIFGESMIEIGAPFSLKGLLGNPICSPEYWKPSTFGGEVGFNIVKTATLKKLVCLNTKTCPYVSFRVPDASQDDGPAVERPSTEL

Cc1c(C)c2c(c(C)c1O)CC[C@@](C)(CCCC(C)CCCC(C)CCCC(C)C(=O)O)O2 (stereo partly drawn) [4a, 13-((2R)-6-hydroxy-2,5,7,8-tetramethylchroman-2-yl)-2,6,10-trimethyltridecanoic acid]
Cell viability/peripheral blood mononuclear cells, residual viability [1]: n.i.
IC50 (bovine COX-1): > 10 µM
IC50 (COX-1): 6.9 µM
effect on intracellular Ca^2+ (intracellular Ca^2+): neither affected
vascular permeability ([2]; 30 min post zymosan): reduced
LTC4 levels in the exudate ([2]; 30 min post zymosan, ELISA): strongly decreased
immune cell infiltration into the peritoneal cavity ([2]; 4 h post zymosan): impaired
LTB4 levels in the exudate ([2]; 4 h post zymosan, ELISA): impaired
circulating resolvin E3 in plasma ([2]; 18 h post zymosan): strongly increased
suppressive effect on cell infiltration at the resolution phase ([2]; 18 h post zymosan): vanished
IC50 [3]: 8.8 µM
